According to patent US5827895A, “Hexahydrolupulones useful as anticancer agents” (Regents of the University of Minnesota, priority 1996, dated 1998):
Values after ≈ are worked out from the molar mass of the structure shown. Like-named read-outs stand apart in the source and are kept apart here. *1 amine or outer side, *2 acyl side, *3 side chain or, on linkers, in order; H or OH if unused. Where a SMILES comes first, the peptide text is derived from it. Bridges are numbered along the chain shown (N, C = ends). [ ]: non-standard residue; d: D form. The star is where a group is joined. X1 = NC1=N[C@@H]([C@H](N[*:1])C(=O)[*:2])C[C@H](O)N1; ΔAla(Z-3-ureido) = NC(=O)N/C=C(\N)C(=O)O; β3hOrn = NCCC[C@H](N)CC(=O)*; Dap = NC[C@H](N)C(=O)O

What was measured:
[1] = test system: MRSA (Methicillin Resistant Staphylococcus aureus); experiment: Patient isolates evaluated for antibiotic sensitivity, MRSA
Protocol: (§1) HHC was also tested for effectiveness against various bacterial isolates obtained from human subjects.

[2] = test system: VRE (Vancomycin Resistant Enterococcus faeclum)
Protocol: as §1

[3] = test system: OxaRSA (Oxacillin Resistant Staphylococcus aureus); experiment: Patient isolates evaluated for antibiotic sensitivity, OxaRSA; settings: patient G, OxaRSA
Protocol: as §1

[4] = test system: adriamycin- and vinblastin-resistant CEM cells; settings: Mannering et al.; cited from earlier work
CEM leukemia cells = settings: Mannering et al.; cited from earlier work
Hela cells = settings: Mannering et al.; cited from earlier work
TB = settings: currently utilized anti-TB drugs, for comparison; cited from earlier work
Lactobacilli = settings: U.S. Pat. No. 5,082,975; cited from earlier work
[5] = Carson, 1951; cited from earlier work
Listeria monocytogenes = settings: U.S. Pat. Nos. 5,286,506; 5,455,038; cited from earlier work

CC1(C)S[C@@H]2[C@H](NC(=O)[C@H](N)c3ccccc3)C(=O)N2[C@H]1C(=O)O [Amp, Ampicillin]
antibiotic sensitivity ([1]; patient F, R > 8 μg/ml): R (R > 8 μg/ml) | antibiotic sensitivity ([2]; patient A, R > 8 μg/ml): R (R > 8 μg/ml) | antibiotic sensitivity ([2]; patient B, R > 8 μg/ml): R (R > 8 μg/ml) | antibiotic sensitivity ([2]; patient C, R > 8 μg/ml): R (R > 8 μg/ml)

CC(=O)OCC1=C(C(=O)O)N2C(=O)[C@@H](NC(=O)Cc3cccs3)[C@H]2SC1 [Ceph, Cephalothin]
antibiotic sensitivity ([1]; patient D, R > 32 μg/ml): R (R > 32 μg/ml) | antibiotic sensitivity ([1]; patient E, R > 32 μg/ml): R (R > 32 μg/ml) | antibiotic sensitivity ([3]; R > 32 μg/ml): R (R > 32 μg/ml)

O=C(N[C@H](CO)[C@H](O)c1ccc([N+](=O)[O-])cc1)C(Cl)Cl [Chlor, Chloramphenicol]
antibiotic sensitivity ([2]; patient A, threshold not given): S | antibiotic sensitivity ([2]; patient B, threshold not given): S | antibiotic sensitivity ([2]; patient C, threshold not given): S

O=C(O)c1cn(C2CC2)c2cc(N3CCNCC3)c(F)cc2c1=O [Cipro, Ciprofloxacin]
antibiotic sensitivity ([1]; patient D, R > 2 μg/ml): R (R > 2 μg/ml) | antibiotic sensitivity ([1]; patient E, R > 2 μg/ml): R (R > 2 μg/ml) | antibiotic sensitivity ([1]; patient F, R > 2 μg/ml): R (R > 2 μg/ml) | antibiotic sensitivity ([2]; patient A, R > 2 μg/ml): R (R > 2 μg/ml) | antibiotic sensitivity ([2]; patient B, R > 2 μg/ml): R (R > 2 μg/ml) | antibiotic sensitivity ([2]; patient C, R > 2 μg/ml): R (R > 2 μg/ml) | antibiotic sensitivity ([3]; R > 2 μg/ml): R (R > 2 μg/ml)

CCC[C@@H]1C[C@@H](C(=O)N[C@@H]([C@H]2O[C@H](SC)[C@H](O)[C@@H](O)[C@H]2O)[C@H](C)Cl)N(C)C1 [Clin, Clindamycin]
antibiotic sensitivity ([1]; patient D, R > 8 μg/ml): R (R > 8 μg/ml) | antibiotic sensitivity ([1]; patient E, R > 8 μg/ml): R (R > 8 μg/ml) | antibiotic sensitivity ([3]; R > 8 μg/ml): R (R > 8 μg/ml)

CC(C)=CCC1=C(O)C(C(=O)C(C)C)=C(O)C(CC=C(C)C)(CC=C(C)C)C1=O [Colupulone]
activity against resistant CEM cells [4]: active | activity against CEM leukemia cells (CEM leukemia cells): active | activity against Hela cells (Hela cells): active against Hela cells

N[C@@H]1CON=C1O [Cycloserine]
MIC (TB): 147 to 195 µM

CC[C@H]1OC(=O)[C@H](C)[C@@H](O[C@H]2C[C@@](C)(OC)[C@@H](O)[C@H](C)O2)[C@H](C)[C@@H](O[C@@H]2O[C@H](C)C[C@H](N(C)C)[C@H]2O)[C@](C)(O)C[C@@H](C)C(=O)[C@H](C)[C@@H](O)[C@]1(C)O [Eryth, Erythromycin]
antibiotic sensitivity ([1]; patient D, R > 8 μg/ml): R (R > 8 μg/ml) | antibiotic sensitivity ([1]; patient E, R > 8 μg/ml): R (R > 8 μg/ml) | antibiotic sensitivity ([3]; R > 8 μg/ml): R (R > 8 μg/ml)

CC[C@@H](CO)NCCN[C@@H](CC)CO [Ethambutol]
MIC (TB): 5 to 25 µM

CCc1cc(C(N)=S)ccn1 [Ethionamide]
MIC (TB): 15 µM (≈ 2.49 µg/mL)

NNC(=O)c1ccncc1 [Isoniazid]
MIC (TB): 1.5 µM (≈ 0.206 µg/mL)

Cc1onc(-c2ccccc2)c1C(=O)N[C@@H]1C(=O)N2[C@@H]1SC(C)(C)[C@@H]2C(=O)O [Oxa, Oxacillin]
antibiotic sensitivity ([1]; patient D, R > 8 μg/ml): R (R > 8 μg/ml) | antibiotic sensitivity ([1]; patient E, R > 8 μg/ml): R (R > 8 μg/ml) | antibiotic sensitivity ([3]; R > 8 μg/ml): R (R > 8 μg/ml)

NC(=O)c1cnccn1 [Pyrazinamide]
MIC (TB): 122 µM (≈ 15 µg/mL)

CO[C@H]1/C=C/O[C@@]2(C)Oc3c(C)c(O)c4c(O)c(c(/C=N/N5CCN(C)CC5)c(O)c4c3C2=O)NC(=O)/C(C)=C\C=C\[C@H](C)[C@H](O)[C@@H](C)[C@@H](O)[C@@H](C)[C@H](OC(C)=O)[C@@H]1C [Rif, Rifampin]
antibiotic sensitivity ([1]; patient F, threshold not given): S | antibiotic sensitivity ([2]; patient B, threshold not given): S

[H]/N=C(/N)N[C@H]1[C@H](O)[C@@H](O)[C@H](O[C@@H]2O[C@@H](C)[C@](O)(C=O)[C@H]2O[C@@H]2O[C@@H](CO)[C@H](O)[C@@H](O)[C@@H]2NC)[C@@H](N/C(N)=N\[H])[C@@H]1O [Strep, Streptomycin]
MIC (TB): 1.8 to 17 µM | antibiotic sensitivity ([2]; patient B, R > 2000 μg/ml): R (R > 2000 μg/ml)

CN(C)[C@@H]1C(=O)C(C(N)=O)=C(O)[C@@]2(O)C(=O)C3=C(O)c4c(O)cccc4[C@@](C)(O)[C@H]3C[C@@H]12 [Tetra, Tetracycline]
antibiotic sensitivity ([2]; patient A, threshold not given): S | antibiotic sensitivity ([2]; patient B, threshold not given): S

CN[C@H](CC(C)C)C(=O)N[C@H]1C(=O)N[C@@H](CC(N)=O)C(=O)N[C@H]2C(=O)N[C@H]3C(=O)N[C@H](C(=O)N[C@H](C(=O)O)c4cc(O)cc(O)c4-c4cc3ccc4O)[C@H](O)c3ccc(c(Cl)c3)Oc3cc2cc(c3O[C@@H]2O[C@H](CO)[C@@H](O)[C@H](O)[C@H]2O[C@H]2C[C@](C)(N)[C@H](O)[C@H](C)O2)Oc2ccc(cc2Cl)[C@H]1O [Vanco, Vancomycin]
antibiotic sensitivity ([1]; patient D, R > 16 μg/ml): S | antibiotic sensitivity ([1]; patient E, R > 16 μg/ml): S | antibiotic sensitivity ([2]; patient A, R > 16 μg/ml): R (R > 16 μg/ml) | antibiotic sensitivity ([2]; patient B, R > 16 μg/ml): R (R > 16 μg/ml) | antibiotic sensitivity ([2]; patient C, R > 16 μg/ml): S | antibiotic sensitivity ([3]; R > 16 μg/ml): S

NCCC[C@H](N)CC(=O)N[C@H]1CNC(=O)[C@H]([C@H]2C[C@H](O)NC(N)=N2)NC(=O)/C(=C/NC(N)=O)NC(=O)[C@H](CO)NC(=O)[C@H](CO)NC1=O [Viomycin] (β3hOrn-[Dap]SS[ΔAla(Z-3-ureido)][X1]; lactam 1-C)
MIC (TB): 1.5 to 15 µM

CC(C)CCC1=C(O)C(C(=O)CC(C)C)=C(O)C(CCC(C)C)(CCC(C)C)C1=O [hexahydrolupulone]
growth inhibition of certain Lactobacilli (Lactobacilli): inhibits the growth of certain Lactobacilli | stability relative to non-hydrogenated parent [5]: more stable than lupulone

CC(C)CCC(=O)C1(O)C(O)=C(C(=O)CC(C)C)C(=O)C1CCC(C)C (stereo not shown) [tetrahydroisohumulone, reference compound]
growth inhibition of food pathogens (Listeria monocytogenes): can inhibit the growth of food pathogens, such as Listeria monocytogenes

Gentamicin
antibiotic sensitivity ([2]; patient B, threshold not given): S

Peniciliin
antibiotic sensitivity ([1]; patient D, R > 8 μg/ml): R (R > 8 μg/ml) | antibiotic sensitivity ([1]; patient E, R > 8 μg/ml): R (R > 8 μg/ml) | antibiotic sensitivity ([1]; patient F, R > 8 μg/ml): R (R > 8 μg/ml) | antibiotic sensitivity ([2]; patient A, R > 8 μg/ml): R (R > 8 μg/ml) | antibiotic sensitivity ([2]; patient B, R > 8 μg/ml): R (R > 8 μg/ml) | antibiotic sensitivity ([2]; patient C, R > 8 μg/ml): R (R > 8 μg/ml) | antibiotic sensitivity ([3]; R > 8 μg/ml): R (R > 8 μg/ml)
